{
  "source": "patent US20240308992A1",
  "about": "(Biopolar Youtang(Guangdong) Pharmaceutical Co., Ltd., priority 2021, published 2024)",
  "target": "T1, Drak2 (Homo sapiens, UniProt O94768)",
  "T1 sequence (O94768 1-372)": "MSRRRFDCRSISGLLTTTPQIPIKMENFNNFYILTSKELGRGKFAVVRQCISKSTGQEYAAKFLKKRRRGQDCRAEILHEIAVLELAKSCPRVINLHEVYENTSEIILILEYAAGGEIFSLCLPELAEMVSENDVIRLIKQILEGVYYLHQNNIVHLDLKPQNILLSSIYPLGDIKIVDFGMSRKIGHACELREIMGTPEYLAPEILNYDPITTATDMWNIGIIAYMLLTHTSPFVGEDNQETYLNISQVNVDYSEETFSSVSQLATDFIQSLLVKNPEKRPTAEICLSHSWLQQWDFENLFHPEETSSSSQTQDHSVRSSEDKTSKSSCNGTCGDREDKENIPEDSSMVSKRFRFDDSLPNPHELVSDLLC",
  "experiment": "Drak2 activity test, ADP-Glo kinase assay (Promega)",
  "format": "biochemical",
  "conditions": "inhibition of Drak2 kinase activity, 2 h room temperature, activity range classes, read-out: IC50_Drak2",
  "data": [
    {"smiles": "COc1cc(-c2cncc(-c3cc(NC(=O)C(C)(C)C4CC(F)(F)C4)cs3)n2)ccc1C(=O)N(C)C1CC2(C1)CN(C)C2", "note": "(stereo not drawn) [Example 203, 4-[6-(4-{[2-(3,3-difluorocyclobutyl)-2-methylpropionyl]amino}thiophen-2-yl)pyrazin-2-yl]-2-methoxy-N-methyl-N-(2-methyl-2-azaspiro [3.3]hept-6-yl) benzamide]", "values": [
      {"measurement": "IC50", "value": "11 to 100", "unit": "nM"}
    ]},
    {"smiles": "COc1cc(-c2cncc(-c3cc(NC(=O)CC45CC(C4)C5)cs3)n2)ccc1C(=O)Nc1nnco1", "note": "[Example 204, 4-[6-(4-{[2-(bicyclo [1.1.1]penta-1-yl)acetyl]amino}thiophen-2-yl)pyrazin-2-yl]-2-methoxy-N-(1,3,4-oxadiazol-2-yl) benzamide]", "values": [
      {"measurement": "IC50", "value": "101 to 1000", "unit": "nM"}
    ]},
    {"smiles": "COc1cc(-c2cncc(-c3cc(NC(=O)CC4CC(O)C4)cs3)n2)ccc1C(=O)N(C)C1CC2(C1)CN(C)C2", "note": "(stereo not drawn) [Example 205, 4-(6-(4-(2-(3-hydroxycyclobutyl)acetylamino)thiophen-2-yl)pyrazin-2-yl)-2-methoxy-N-methyl-N-(2-methyl-2-azaspiro [3.3]heptane-6-yl) benzamide]", "values": [
      {"measurement": "IC50", "value": "11 to 100", "unit": "nM"}
    ]},
    {"smiles": "COc1cc(-c2cncc(-c3cc(NC(=O)CC4CC(OC)C4)cs3)n2)ccc1C(=O)N(C)C1CC2(C1)CN(C)C2", "note": "(stereo not drawn) [Example 206, 2-Methoxy-4-(6-(4-(2-(3-methoxycyclobutyl)acetylamino)thiophen-2-yl)pyrazin-2-yl)-N-methyl-N-(2-methyl-2-azaspiro [3.3]heptane-6-yl) benzamide]", "values": [
      {"measurement": "IC50", "value": "11 to 100", "unit": "nM"}
    ]},
    {"smiles": "COc1cc(-c2cncc(-c3cc(NC(=O)CC4CC(OCc5ccccc5)C4)cs3)n2)ccc1C(=O)N(C)C1CC2(C1)CN(C)C2", "note": "(stereo not drawn) [Example 207, 4-(6-(4-(2-(3-(benzyloxy)cyclobutyl)acetylamino)thiophen-2-yl)pyrazin-2-yl)-2-methoxy-N-methyl-N-(2-methyl-2-azaspiro [3.3]heptane-6-yl) benzamide]", "values": [
      {"measurement": "IC50", "value": "11 to 100", "unit": "nM"}
    ]},
    {"smiles": "COc1cc(-c2cncc(-c3cc(NC(=O)CC4CCC4)cs3)n2)ccc1-c1ncc2c(n1)CCN(Cc1ccccc1)C2", "note": "[Example 208, N-(5-(6-(4-(6-benzyl-5,6,7,8-tetrahydropyrido [4,3-d]pyrimidin-2-yl)-3-methoxyphenyl)pyrazin-2-yl)thiophen-3-yl)-2-cyclobutyl Acetamide]", "values": [
      {"measurement": "IC50", "value": "101 to 1000", "unit": "nM"}
    ]},
    {"smiles": "O=C(CC1CCC1)Nc1csc(-c2cncc(-c3ccnc4[nH]ccc34)n2)c1", "note": "[Example 209, N-(5-(6-(1H-pyrrolo [2,3-b]pyridin-4-yl)pyrazin-2-yl)thiophen-3-yl)-2-cyclobutylacetamide]", "values": [
      {"measurement": "IC50", "value": "11 to 100", "unit": "nM"}
    ]},
    {"smiles": "CC(C)n1ccc2c(-c3cncc(-c4cc(NC(=O)CC5CCC5)cs4)n3)ccnc21", "note": "[Example 210, 2-Cyclobutyl-N-(5-{6-[1-(propyl-2-yl)pyrrolo [2,3-b]pyridin-4-yl]pyrazin-2-yl}thiophen-3-yl) acetamide]", "values": [
      {"measurement": "IC50", "value": "101 to 1000", "unit": "nM"}
    ]},
    {"smiles": "O=C(CC1CCC1)Nc1csc(-c2cncc(-c3ccnc4c3ccn4Cc3ccccc3)n2)c1", "note": "[Example 211, N-{5-[6-(1-benzylpyrrolo [2,3-b]pyridin-4-yl)pyrazin-2-yl]thiophen-3-yl}-2-cyclobutyl Acetamide]", "values": [
      {"measurement": "IC50", "value": "101 to 1000", "unit": "nM"}
    ]},
    {"smiles": "O=C(CC1CCC1)Nc1csc(-c2cncc(-c3ccc4cnn(C5CC5)c4c3)n2)c1", "note": "[Example 212, 2-Cyclobutyl-N-{5-[6-(1-cyclopropylindazol-6-yl)pyrazin-2-yl]thiophen-3-yl}acetamide]", "values": [
      {"measurement": "IC50", "value": "101 to 1000", "unit": "nM"}
    ]},
    {"smiles": "CC(C)n1ncc2ccc(-c3cncc(-c4cc(NC(=O)CC5CCC5)cs4)n3)cc21", "note": "[Example 213, 2-Cyclobutyl-N-(5-{6-[1-(propyl-2-yl)indazol-6-yl]pyrazin-2-yl}thiophen-3-yl) acetamide]", "values": [
      {"measurement": "IC50", "value": "101 to 1000", "unit": "nM"}
    ]},
    {"smiles": "CCCCC(=O)Nc1csc(-c2cncc(-c3ccc4c(c3)OCCN4C(=O)C3CCN(C)CC3)n2)c1", "note": "[Example 214, N-[5-(6-{4-[(1-methylhexahydropyridin-4-yl)carbonyl]-3,4-dihydro-2H-benzo [2,1-b] [1,4]oxazinan-7-yl}pyrazine-2-y)thiophene-3-yl] pentanamide]", "values": [
      {"measurement": "IC50", "value": "11 to 100", "unit": "nM"}
    ]}
  ]
}
